{"source": "patent US10959992B2", "about": "“Methods of treatment of asthma and COPD” (Bridge Pharma, Inc., priority 2019, dated 2021)", "key": {"[1]": {"system": "PAF-induced eosinophilia", "assay": "PAF-induced pulmonary eosinophil accumulation after continuous subcutaneous dosing", "type": "in vivo, Sprague-Dawley rats", "conditions": "sc 1.0 mg/kg/day for six days, PAF-treated rats", "description": "Male Sprague-Dawley rats, 400-600 g, were used in these studies.\nThe study described here used subcutaneous administration of norketotifen and ketotifen by Alzet® osmotic pumps. The rats were administered either RS-norketotifen hydrogen fumarate (1.0 mg/kg/day) or RS-ketotifen hydrogen fumarate (1.0 mg/kg/day) or saline. After five days of sc infusions of test articles and the vehicle, the animals were injected, i.p. with 10 μg PAF (platelet aggregating factor) in 0.25% bovine serum albumin (BSA) in saline. The subcutaneous infusions of test articles or vehicle were continued for another twenty-four hours and the animals were then sacrificed by intraperitoneal injections of a barbiturate. The tracheae of the euthanized animals were exposed and cannulated and aliquots (6×10 ml) of a Tyrode solution were successively introduced into the lungs and aspirated by gentle compression of the thorax. The total recovery of lung fluid was usually above 80%. The cell suspensions were concentrated by low speed centrifugation (200 g for 10 min) and the resulting cell pellet was resuspended in 1 ml of a Tyrode solution. Total cell counts were performed after dilution in Turks fluid, fixation in methanol and Leishman staining.\nThe study shown here used norketotifen, ketotifen, and saline (control) after continuous dosing with Alzet® Osmotic pumps."}, "[2]": {"system": "oxazolone-induced increase in ear thickness", "assay": "Oxazolone test of immunosuppression (ear thickness)", "type": "in vivo, BALB/c mice", "conditions": "for Increase in ear thickness (mm): control 0.153; for Increase in ear thickness (%): control 100.0", "description": "Male BALB/c mice, 20-24 grams, 7-12 weeks, were used. The sensitization dosing (Day 1) consisted of painting the ventral portion of the pre-shaved abdominal skin with 0.1 ml of 3.0% oxazolone in 70% ethanol. Test articles were administered orally in 1.0% methyl-cellulose, starting on Day 1 and continuing for 10 consecutive days. The challenge dosing consisted of the application of 0.05 ml of 3.0% oxazolone in 70% ethanol on both sides of the outer pinna of the right ear. The thickness of both ears of all animals was measured with a calliper before the challenge dose and 24 hours after the administration of the challenge dose (Day 10). The ear thickness of untreated mice was 0.19 to 0.20 mm.\nJustification of the model: The classic oxazolone test method was used with minor modifications. This method has been used for over 40 years in numerous drug development projects."}, "[3]": {"system": "Malassezia pachydermatis", "assay": "Antimicrobial activity (MIC), Malassezia pachydermatis", "type": "cell-based", "conditions": "Fungi: Mp, MIC refers to lethal concentrations"}, "[4]": {"system": "Candida albicans", "assay": "Antimicrobial activity (MIC), Candida albicans", "type": "cell-based", "conditions": "Fungi: Ca, MIC refers to lethal concentrations"}, "[5]": {"system": "Klebsiella pnemoniae", "assay": "Antimicrobial activity (MIC), Klebsiella pnemoniae", "type": "cell-based", "conditions": "Bacteria: Kp, MIC refers to lethal concentrations"}, "[6]": {"system": "Haemophilus influenza", "assay": "Antimicrobial activity (MIC), Haemophilus influenza", "type": "cell-based", "conditions": "Bacteria: Hi, MIC refers to lethal concentrations"}, "[7]": {"system": "Moraxella catarrhalis", "assay": "Antimicrobial activity (MIC), Moraxella catarrhalis", "type": "cell-based", "conditions": "Bacteria: Mc, MIC refers to lethal concentrations"}, "[8]": {"biological_target": "human M-3 (hM3) receptor (Homo sapiens, UniProt P20309)", "sequence (P20309 whole entry)": "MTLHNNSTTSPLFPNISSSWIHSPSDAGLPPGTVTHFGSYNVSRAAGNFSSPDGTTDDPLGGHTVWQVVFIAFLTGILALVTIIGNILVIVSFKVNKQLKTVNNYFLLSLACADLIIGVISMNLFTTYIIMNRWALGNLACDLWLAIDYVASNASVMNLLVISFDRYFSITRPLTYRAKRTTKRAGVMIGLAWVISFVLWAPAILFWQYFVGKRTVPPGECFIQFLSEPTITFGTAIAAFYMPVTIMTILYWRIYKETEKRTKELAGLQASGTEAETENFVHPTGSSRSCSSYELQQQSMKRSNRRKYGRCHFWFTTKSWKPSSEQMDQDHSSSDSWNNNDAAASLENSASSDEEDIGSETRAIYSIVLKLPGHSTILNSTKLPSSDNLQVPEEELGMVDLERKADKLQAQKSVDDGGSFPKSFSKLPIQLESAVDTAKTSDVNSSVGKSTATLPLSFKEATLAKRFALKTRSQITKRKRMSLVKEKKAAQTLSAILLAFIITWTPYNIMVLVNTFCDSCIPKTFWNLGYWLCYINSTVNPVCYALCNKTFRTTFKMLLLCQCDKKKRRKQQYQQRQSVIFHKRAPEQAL", "assay": "Muscarinic M-3 receptor binding assay", "conditions": "calculated from mean values, as norketotifen free base; NK hydrogen fumarate tested in duplicates, 1.0E-08M to 1.0E-04M", "excerpt": "The current study used human M-3 (hM3) receptor and NK hydrogen fumarate was the antagonist in the current studies. The study used NK in duplicates at five dose-levels from 1.0E-08M to 1.0E-04M."}, "[9]": {"system": "IL-6", "assay": "PHA-induced release of IL-6 from human buffy coats", "type": "cell-based", "conditions": "PHA 5 μg/ml, 16 hours, inhibition", "description": "(§1) The study was conducted in two phases. The first phase included optimization of the test methodology and included also dose-range finding studies, using buffy coats from 3 human donors, stimulated with phytohemagglutinin (PHA). The concentrations of the test article and the duration of exposure were optimized to obtain acceptable dose-response ratios. Following optimization of the test conditions, a final protocol was issued. In the Main Study, buffy coats from 5 healthy human male donors were stimulated with PHA, 5 μg/ml.\n(§2) The inhibitory effects of three concentrations of NK and one concentration of ketotifen were evaluated in the Main Study. The buffy coats were resuspended in assay media and were pre-incubated for 30 min with either vehicle/saline, ketotifen (10 μM) or norketotifen (1.0; 10 or 100 μM). Following these preincubations, the white blood cell suspensions were stimulated for 16 hours with PHA, 5 μg/ml. The cell system supernatants were then harvested and stored frozen."}, "[10]": {"system": "IL-2", "assay": "PHA-induced release of IL-2 from human buffy coats", "type": "cell-based", "conditions": "PHA 5 μg/ml, 16 hours, inhibition", "description": "as §1, §2"}, "[11]": {"system": "IL-1β", "assay": "PHA-induced release of IL-1β from human buffy coats", "type": "cell-based", "conditions": "PHA 5 μg/ml, 16 hours, inhibition", "description": "as §1, §2"}, "[12]": {"system": "IFN-γ", "assay": "PHA-induced release of IFN-γ from human buffy coats", "type": "cell-based", "conditions": "PHA 5 μg/ml, 16 hours, inhibition", "description": "as §1, §2"}, "[13]": {"system": "immune system", "assay": "Repeat-dose toxicology studies, signs of immune system suppression", "type": "in vivo", "conditions": "repeat-dose toxicology studies: hematology, clinical chemistry, histopathology, organ and body weight indicators"}, "[14]": {"conditions": "10.0 mg/kg/day oral for 10 days"}, "[15]": {"conditions": "30.0 mg/kg/day oral for 10 days"}}, "note": "Like-named read-outs stand apart in the source and are kept apart here.", "data": [{"smiles": "O=C1Cc2ccccc2C(=C2CCNCC2)c2ccsc21", "note": "(racemic) [norketotifen]", "values": [{"measurement": "Reduction of eosinophil counts below the baseline (saline control) level", "setting": "[1]", "result": 26, "unit": "%"}, {"measurement": "Immunosuppression (%)", "setting": "[2]; [14]", "result": 3.9, "unit": "%"}, {"measurement": "Increase in ear thickness (mm)", "setting": "[2]; [14]", "result": 0.147, "unit": "mm"}, {"measurement": "Increase in ear thickness (%)", "setting": "[2]; [14]", "result": 96.1, "unit": "%"}, {"measurement": "Immunosuppression (%)", "setting": "[2]; [15]", "result": 8.5, "unit": "%"}, {"measurement": "Increase in ear thickness (mm)", "setting": "[2]; [15]", "result": 0.140, "unit": "mm"}, {"measurement": "Increase in ear thickness (%)", "setting": "[2]; [15]", "result": 91.5, "unit": "%"}, {"measurement": "Immuno-suppressant activity (conclusion in words)", "setting": "[2]; daily oral dosing for 10 days to mice, RS-norketotifen 10 or 30 mg/kg, prednisolone at 10 times lower doses", "result": "did not induce immuno-suppressant activity"}, {"measurement": "MIC", "setting": "[3]", "result": 1000, "unit": "µg/mL"}, {"measurement": "MIC", "setting": "[4]", "result": 1000, "unit": "µg/mL"}, {"measurement": "MIC", "setting": "[5]", "result": 500, "unit": "µg/mL"}, {"measurement": "MIC", "setting": "[6]", "result": "about 0.25 mg/mL"}, {"measurement": "MIC", "setting": "[6]; Haemophilus, read-out: MIC", "result": 250, "unit": "µg/mL"}, {"measurement": "MIC", "setting": "[7]", "result": 250, "unit": "µg/mL"}, {"measurement": "MIC", "setting": "[7]; Moraxella catarrhalis, read-out: MIC", "result": 250, "unit": "µg/mL"}, {"measurement": "Ki", "setting": "[8]", "result": 2200, "unit": "nM"}, {"measurement": "Effect on PHA-induced release of IL-6 (%)", "setting": "[9]; 1 uM", "result": 0.00, "unit": "%"}, {"measurement": "Effect on PHA-induced release of IL-6 (%)", "setting": "[9]; 10 uM", "result": "33.13^1%"}, {"measurement": "Effect on PHA-induced release of IL-6 (%)", "setting": "[9]; 100 uM", "result": "88.16^1%"}, {"measurement": "Effect on PHA-induced release of IL-2 (%)", "setting": "[10]; 1 uM", "result": 0.00, "unit": "%"}, {"measurement": "Effect on PHA-induced release of IL-2 (%)", "setting": "[10]; 10 uM", "result": "46.63^1%"}, {"measurement": "Effect on PHA-induced release of IL-2 (%)", "setting": "[10]; 100 uM", "result": "93.47^1%"}, {"measurement": "Effect on PHA-induced release of IL-1β (%)", "setting": "[11]; 1 uM", "result": 0.00, "unit": "%"}, {"measurement": "Effect on PHA-induced release of IL-1β (%)", "setting": "[11]; 10 uM", "result": 16.20, "unit": "%"}, {"measurement": "Effect on PHA-induced release of IL-1β (%)", "setting": "[11]; 100 uM", "result": "57.00^1%"}, {"measurement": "Effect on PHA-induced release of IFN-γ (%)", "setting": "[12]; 1 uM", "result": 0.00, "unit": "%"}, {"measurement": "Effect on PHA-induced release of IFN-γ (%)", "setting": "[12]; 10 uM", "result": "16.54^2%"}, {"measurement": "Effect on PHA-induced release of IFN-γ (%)", "setting": "[12]; 100 uM", "result": "71.56^1%"}, {"measurement": "Signs of immune system suppression", "setting": "[13]", "result": "no signs of immune system suppression"}]}]}
